Data taken from publication PMC8026324, “In Vitro Antiplasmodial, Heme Polymerization, and Cytotoxicity of Hydroxyxanthone Derivatives” (Journal of Tropical Medicine, 2021).

Legend:
[1] = system: Plasmodium falciparum FCR-3 (chloroquine-resistant strain); assay: In vitro antiplasmodial activity assay, microscopic method, strain FCR-3; type: cell-based; conditions: for IC50: 72 hours incubation, microscopic method, read-out: IC50 on P. falciparum FCR-3; for antiplasmodial activity category on P. falciparum FCR-3: category by IC50
Experimental: (§1) The test of antiplasmodial activity began with the culture of P. falciparum 3D-7 and FCR-3 using the modified Trager and Jensen method. The plasmodium was cultured in human O red blood cells diluted to 3% haematocrit in RPMI 1640 medium complemented with 10% human O serum. The medium was made by adding 10.43 g of powder RPMI 1640, 6 g HEPES, 2 g NaHCO3, 25 mg gentamycin, and sterile distilled water up to 1 L. The medium pH was adjusted so that it reached ±7.2. It was sterilized using a 0.22 μm filter and stored at 4°C. The complete plasmodium culture medium was made by adding human serum with a concentration of 10% in the medium. The plasmodium culture was incubated in candle jar in an incubator with a temperature of 37°C and was observed every 24 hours.
(§2) The plasmodium was synchronized to obtain the ring stage by adding 5% of D-sorbitol. The plasmodium was transferred from culture flask to a conical tube, and then it was centrifuged with a speed of 1000 rpm for 10 minutes. After the supernatant was disposed, the sterile 5% sorbitol was added and incubated for 10 minutes at a temperature of 37°C. The plasmodium suspension was centrifuged again; the supernatant was disposed and the plasmodium was washed by adding culture medium. Then, the plasmodium suspension was centrifuged again, and the supernatant was discarded, resulting in a plasmodium in ring stage only. The parasitemia was calculated from a thin blood preparation. The test used 1% parasitemia at 2% haematocrit in RPMI medium which complemented with 10% human O serum.
(§3) Each testing compound was dissolved in RPMI medium. The testing compound in various concentrations with volume of 100 μL was incorporated into the 96-well microplate, and then 100 μL of Plasmodium suspension was added. Each series of concentrations was replicated three times. The microplate was incubated at a temperature of 37°C for 72 hours. At the end of the incubation, a thin blood smear was made using 10% Giemsa stain and observed under a light microscope at 1000x magnification. The percentage of parasitemia (counting a minimum of 1,000 erythrocytes) was calculated from the preparation of thin blood and then used to calculate the percentage of plasmodium growth inhibition. […] Antiplasmodial activity is expressed as IC50, which is the concentration of a compound that is required for 50% inhibition of plasmodium growth. The IC50 value was calculated by probit analysis using SPSS software (IBM Corp., Chicago). The lower the IC50 value obtained, the greater the antiplasmodial activity.

Hela = system: Hela; parameters: method as in earlier work; conditions: cited from earlier work
Vero cells = assay: In vitro cytotoxicity test, MTT assay on Vero cell line; type: cell-based; conditions: for IC50: MTT assay; for Selectivity index 3D-7: ratio IC50 on Vero cell/IC50 on P. falciparum 3D-7; for Selectivity index FCR-3: ratio IC50 on Vero cell/IC50 on P. falciparum FCR-3
Experimental: The in vitro cytotoxicity test was conducted using the 3-(4,5-dimethylthiazol-2-yl)2,5-diphenyltetrazolium bromide (MTT) assay method on Vero cell line culture using the Anderson et al.'s modified method.
The cell was removed from the cryo medium. Then, the cell was thawed at 37°C. The liquid cell was subsequently transferred to the tube and a culture medium was added to a volume of 10 mL. Then, the suspension was centrifuged for 15 minutes so that it would form cell pellets. The supernatant was removed and 1 mL of culture medium was added to the cell pellets. Finally, the suspension was transferred to the Petri dish and incubated in the incubator with 5% of CO2 at 37°C.
The medium of Vero cell culture was removed, and then the cell was washed using a PBS solution with a volume of PBS ± 1/2 of the initial medium volume. This step was done twice and 1 mL of trypsin 0.25% was added. Subsequently, the cell was incubated in the CO2 incubator at 37°C for 3 minutes. Then, the cell was resuspended using 2 mL of culture medium and PBS solution was added up to 10 mL. The suspension was centrifuged for 15 minutes so that it formed pellets. Pellets were added with 1 mL of culture medium and resuspended. Take 10 μL of the cell suspension and density of cells was calculated.
Then, the cell was added with culture medium to 10 mL. A total of 100 μL of such suspensions was transferred into each well of the 96-well microplate, but three of the wells were emptied as medium controls. Subsequently, the microplate was incubated in a 5% CO2 incubator at 37°C.
Each hydroxyxanthone derivative compound was dissolved in DMSO, and a variety of concentrations were prepared in the medium. Each concentration of the testing compound was added into the 96-well microplate triplicately. Cell control and medium control were not given a testing compound solution. The medium control remained blank, while the cell control contained culture medium only. […] Then, the cell was incubated in a 5% CO2 incubator at 37°C for 24 hours.
After the cell was incubated for 24 hours, the medium was discarded and washed with PBS. Then, each well was added with 100 μL of 5 mg/mL of MTT solution. The 96-well microplate was incubated again in the incubator of CO2 at 37°C for 4 hours. Then, 100 μL of 10% of SDS in 0.01 MHCl was added. The cells were placed in a dark room at room temperature for 24 hours.
The absorbance was measured using the enzyme-linked immunosorbent assay (ELISA) reader at 595 nm wavelength. The cytotoxicity test on the Vero cells was done by calculating the percentage of Vero cell inhibition of the absorption value of the test compound, cell control, and medium control. The cytotoxic effect was expressed as IC50. The IC50 value was obtained from the probit analysis by using SPSS software (IBM Corp., Chicago). The degree of selectivity was expressed as a selectivity index. The selectivity index was obtained from the ratio between the IC50 cytotoxic effect on Vero cells and IC50 antiplasmodial activity on Plasmodium. A compound is said to be safe if the value of the selectivity index is >10 [20].

[2] = system: Plasmodium falciparum 3D-7 (chloroquine-sensitive strain); assay: In vitro antiplasmodial activity assay, microscopic method, strain 3D-7; type: cell-based; conditions: for IC50: 72 hours incubation, microscopic method, read-out: IC50 on P. falciparum 3D-7; for antiplasmodial activity category on P. falciparum 3D-7: category by IC50
Experimental: as §1, §2, §3

WIDR = system: WIDR; parameters: method as in earlier work; conditions: cited from earlier work
MCF-7 = system: MCF-7; parameters: method as in earlier work; conditions: cited from earlier work
[3] = system: P. falciparum strain 3D-7; parameters: method as in doi:10.22159/ajpcr.2017.v10i12.19858; conditions: cited from earlier work; for IC50: read-out: antiplasmodial IC50 on P. falciparum strain 3D-7
heme polymerization = system: heme polymerization; parameters: method as in PMID 9199506; conditions: cited from earlier work
[4] = Chlorocebus sabaeus, Vero, 24 h, 24 hours incubation

O=c1c2ccc(O)cc2oc2cccc(O)c12 [HX2, 1,6-dihydroxyxanthone]
inhibition at 54.78 µM ([1]; Plasmodium falciparum, FCR3, 54.78 μM, read-out: Growth inhibition of P. falciparum Strain FCR-3): 47.2 ± 0.687% | inhibition at 109.55 µM ([1]; Plasmodium falciparum, FCR3, 109.55 μM, read-out: Growth inhibition of P. falciparum Strain FCR-3): 50.2 ± 2.63% | inhibition at 219.11 µM ([1]; Plasmodium falciparum, FCR3, 219.11 μM, read-out: Growth inhibition of P. falciparum Strain FCR-3): 67.1 ± 2.76% | inhibition at 438.21 µM ([1]; Plasmodium falciparum, FCR3, 438.21 μM, read-out: Growth inhibition of P. falciparum Strain FCR-3): 74.2 ± 1.32% | inhibition at 876.42 µM ([1]; Plasmodium falciparum, FCR3, 876.42 μM, read-out: Growth inhibition of P. falciparum Strain FCR-3): 87.6 ± 2.24% | IC50 ([1]; Plasmodium falciparum, FCR3): 81.8 ± 5.78 µM | antiplasmodial activity category on P. falciparum FCR-3 [1]: moderate (moderate (IC50 20–100 μM)) | cytotoxicity on Hela (in words) (Hela): weak | IC50 (Vero cells; 24 hours incubation): 308 µM | IC50 (Vero cells; [4]): 390 µM | inhibition at 54.13 µM (Vero cells; Chlorocebus sabaeus, Vero, 24 h, 54.13 μM, read-out: Vero cell growth inhibition after 24 hours incubation): 15.6% | inhibition at 108.26 µM (Vero cells; Chlorocebus sabaeus, Vero, 24 h, 108.26 μM, read-out: Vero cell growth inhibition after 24 hours incubation): 31.8% | inhibition at 216.86 µM (Vero cells; Chlorocebus sabaeus, Vero, 24 h, 216.86 μM, read-out: Vero cell growth inhibition after 24 hours incubation): 38.9% | inhibition at 433.73 µM (Vero cells; Chlorocebus sabaeus, Vero, 24 h, 433.73 μM, read-out: Vero cell growth inhibition after 24 hours incubation): 59.8% | inhibition at 867.45 µM (Vero cells; Chlorocebus sabaeus, Vero, 24 h, 867.45 μM, read-out: Vero cell growth inhibition after 24 hours incubation): 67% | inhibition at 1734.91 µM (Vero cells; Chlorocebus sabaeus, Vero, 24 h, 1734.91 μM, read-out: Vero cell growth inhibition after 24 hours incubation): 86.1% | IC50 (Vero cells; Chlorocebus sabaeus, Vero): 88.9 µg/mL | Selectivity index 3D-7 (Vero cells): 4.30 | Selectivity index FCR-3 (Vero cells): 3.77 | inhibition at 54.78 µM ([2]; Plasmodium falciparum, 54.78 μM, read-out: Growth inhibition of P. falciparum Strain 3D-7): 49.2 ± 1.61% | inhibition at 109.55 µM ([2]; Plasmodium falciparum, 109.55 μM, read-out: Growth inhibition of P. falciparum Strain 3D-7): 54.8 ± 2.43% | inhibition at 219.11 µM ([2]; Plasmodium falciparum, 219.11 μM, read-out: Growth inhibition of P. falciparum Strain 3D-7): 67.16 ± 0.601% | inhibition at 438.21 µM ([2]; Plasmodium falciparum, 438.21 μM, read-out: Growth inhibition of P. falciparum Strain 3D-7): 73.62 ± 0.713% | inhibition at 876.42 µM ([2]; Plasmodium falciparum, 876.42 μM, read-out: Growth inhibition of P. falciparum Strain 3D-7): 90.56 ± 0.665% | IC50 ([2]; Plasmodium falciparum): 71.78 ± 0.31 µM | antiplasmodial activity category on P. falciparum 3D-7 [2]: moderate (moderate (IC50 20–100 μM)) | cytotoxicity on WIDR (in words) (WIDR): weak | cytotoxicity on MCF-7 (in words) (MCF-7): weak

O=c1c2cc(O)ccc2oc2ccc(O)cc12 [2,7-dihydroxyxanthone]
IC50 [3]: 1.34 µM

O=c1c2ccccc2oc2ccc(O)cc12 [2-hydroxyxanthone]
antiplasmodial IC50 [3]: 4.385 µg/mL | IC50 [3]: 20.7 µM

O=c1c2cccc(Cl)c2oc2cccc(O)c12 [HX4, 1-hydroxy-5-chloroxanthone]
inhibition at 50.68 µM ([1]; Plasmodium falciparum, FCR3, 50.68 μM, read-out: Growth inhibition of P. falciparum Strain FCR-3): 47.4 ± 0.736% | inhibition at 101.36 µM ([1]; Plasmodium falciparum, FCR3, 101.36 μM, read-out: Growth inhibition of P. falciparum Strain FCR-3): 49.8 ± 3.36% | inhibition at 202.71 µM ([1]; Plasmodium falciparum, FCR3, 202.71 μM, read-out: Growth inhibition of P. falciparum Strain FCR-3): 56.4 ± 3.79% | inhibition at 405.43 µM ([1]; Plasmodium falciparum, FCR3, 405.43 μM, read-out: Growth inhibition of P. falciparum Strain FCR-3): 61.2 ± 3.02% | inhibition at 810.86 µM ([1]; Plasmodium falciparum, FCR3, 810.86 μM, read-out: Growth inhibition of P. falciparum Strain FCR-3): 72.9 ± 1.34% | IC50 ([1]; Plasmodium falciparum, FCR3): 89.9 ± 7.69 µM | antiplasmodial activity category on P. falciparum FCR-3 [1]: moderate (moderate (IC50 20–100 μM)) | cytotoxicity on Hela (in words) (Hela): weak | IC50 (Vero cells; 24 hours incubation): 331 µM | IC50 (Vero cells; [4]): 335 µM | inhibition at 63.25 µM (Vero cells; Chlorocebus sabaeus, Vero, 24 h, 63.25 μM, read-out: Vero cell growth inhibition after 24 hours incubation): 19% | inhibition at 126.49 µM (Vero cells; Chlorocebus sabaeus, Vero, 24 h, 126.49 μM, read-out: Vero cell growth inhibition after 24 hours incubation): 32.5% | inhibition at 253.39 µM (Vero cells; Chlorocebus sabaeus, Vero, 24 h, 253.39 μM, read-out: Vero cell growth inhibition after 24 hours incubation): 43.2% | inhibition at 506.78 µM (Vero cells; Chlorocebus sabaeus, Vero, 24 h, 506.78 μM, read-out: Vero cell growth inhibition after 24 hours incubation): 54.4% | inhibition at 1013.57 µM (Vero cells; Chlorocebus sabaeus, Vero, 24 h, 1013.57 μM, read-out: Vero cell growth inhibition after 24 hours incubation): 68.9% | inhibition at 2027.14 µM (Vero cells; Chlorocebus sabaeus, Vero, 24 h, 2027.14 μM, read-out: Vero cell growth inhibition after 24 hours incubation): 90% | IC50 (Vero cells; Chlorocebus sabaeus, Vero): 82.6 µg/mL | Selectivity index 3D-7 (Vero cells): 3.88 | Selectivity index FCR-3 (Vero cells): 3.68 | inhibition at 50.68 µM ([2]; Plasmodium falciparum, 50.68 μM, read-out: Growth inhibition of P. falciparum Strain 3D-7): 46.5 ± 0.8% | inhibition at 101.36 µM ([2]; Plasmodium falciparum, 101.36 μM, read-out: Growth inhibition of P. falciparum Strain 3D-7): 50.96 ± 0.361% | inhibition at 202.71 µM ([2]; Plasmodium falciparum, 202.71 μM, read-out: Growth inhibition of P. falciparum Strain 3D-7): 57.1 ± 1.57% | inhibition at 405.43 µM ([2]; Plasmodium falciparum, 405.43 μM, read-out: Growth inhibition of P. falciparum Strain 3D-7): 64.51 ± 0.418% | inhibition at 810.86 µM ([2]; Plasmodium falciparum, 810.86 μM, read-out: Growth inhibition of P. falciparum Strain 3D-7): 74 ± 0.923% | IC50 ([2]; Plasmodium falciparum): 85.3 ± 4.87 µM | antiplasmodial activity category on P. falciparum 3D-7 [2]: moderate (moderate (IC50 20–100 μM)) | cytotoxicity on WIDR (in words) (WIDR): weak | cytotoxicity on MCF-7 (in words) (MCF-7): weak

pentametoxyxanthone
heme polymerization inhibitory activity (in words) (heme polymerization): inactive

pentaacetylxanthone
heme polymerization inhibitory activity (in words) (heme polymerization): inactive
